Measured values taken from patent US20170101383A1, “DIAMINOTRIAZINE DERIVATIVES AS HERBICIDES” (BASF SE, priority 2014, published 2017).

Legend:
Format in all cases: in vivo
[1] = test system: Stellaria media; test: greenhouse pre-emergence treatment, STEME; settings: 0.500 kg/ha, scale 0 to 100
Text: (§1) The seeds of the test plants were sown separately for each species. For the pre-emergence treatment, the active ingredients, which had been suspended or emulsified in water, were applied directly after sowing by means of finely distributing nozzles. The containers were irrigated gently to promote germination and growth and subsequently covered with transparent plastic hoods until the plants had rooted. This cover caused uniform germination of the test plants, unless this had been impaired by the active ingredients. Depending on the species, the plants were kept at 10-25° C. or 20-35° C., respectively. The test period extended over 2 to 4 weeks. During this time, the plants were tended, and their response to the individual treatments was evaluated. Evaluation was carried out using a scale from 0 to 100. 100 means no emergence of the plants, or complete destruction of at least the aerial moieties, and 0 means no damage, or normal course of growth. A moderate herbicidal activity is given at values of at least 60, a good herbicidal activity is given at values of at least 70, and a very good herbicidal activity is given at values of at least 85. The plants used in the greenhouse experiments were of the following species: [table]

[2] = test system: Viola arvensis; test: greenhouse pre-emergence treatment, VIOAR; settings: 0.500 kg/ha, scale 0 to 100
Text: as §1

[3] = test system: Lamium purpureum; test: greenhouse pre-emergence treatment, LAMPU; settings: 0.500 kg/ha, scale 0 to 100
Text: as §1

[4] = test system: Setaria viridis; test: greenhouse post-emergence treatment, SETVI; settings: 0.500 kg/ha, scale 0 to 100
Text: (§2) The seeds of the test plants were sown separately for each species. For the post-emergence treatment, the test plants were first grown to a height of 3 to 15 cm, depending on the plant habit, and only then treated with the active ingredients which had been suspended or emulsified in water. For this purpose, the test plants were either sown directly and grown in the same containers, or they were first grown separately as seedlings and transplanted into the test containers a few days prior to treatment. Depending on the species, the plants were kept at 10-25° C. or 20-35° C., respectively. The test period extended over 2 to 4 weeks. During this time, the plants were tended, and their response to the individual treatments was evaluated. Evaluation was carried out using a scale from 0 to 100. 100 means no emergence of the plants, or complete destruction of at least the aerial moieties, and 0 means no damage, or normal course of growth. A moderate herbicidal activity is given at values of at least 60, a good herbicidal activity is given at values of at least 70, and a very good herbicidal activity is given at values of at least 85. The plants used in the greenhouse experiments were of the following species: [table]

[5] = test system: Viola arvensis; test: greenhouse post-emergence treatment, VIOAR; settings: 0.500 kg/ha, scale 0 to 100
Text: as §2

[6] = test system: Stellaria media; test: greenhouse post-emergence treatment, STEME; settings: 0.500 kg/ha, scale 0 to 100
Text: as §2

[7] = test system: Amaranthus retroflexus; test: greenhouse pre-emergence treatment, AMARE; settings: scale 0 to 100
Text: as §1

[8] = test system: Echinocloa crus-galli; test: greenhouse pre-emergence treatment, ECHCG; settings: 1.000 kg/ha, scale 0 to 100
Text: as §1

[9] = test system: Setaria faberi; test: greenhouse pre-emergence treatment, SETFA; settings: 1.000 kg/ha, scale 0 to 100
Text: as §1

[10] = test system: Alopecurus myosuroides; test: greenhouse pre-emergence treatment, ALOMY; settings: 0.125 kg/ha, scale 0 to 100
Text: as §1

[11] = test system: Apera spica-venti; test: greenhouse pre-emergence treatment, APESV; settings: 0.125 kg/ha, scale 0 to 100
Text: as §1

[12] = test system: Polygonum convolvulus; test: greenhouse post-emergence treatment, POLCO; settings: 0.500 kg/ha, scale 0 to 100
Text: as §2

[13] = test system: Echinocloa crus-galli; test: greenhouse post-emergence treatment, ECHCG; settings: 0.500 kg/ha, scale 0 to 100
Text: as §2

Compound | herbicidal activity against STEME [1] | herbicidal activity against VIOAR [2] | herbicidal activity against LAMPU [3] | herbicidal activity against SETVI [4] | herbicidal activity against VIOAR [5] | herbicidal activity against STEME [6] | herbicidal activity against AMARE ([7]; 1.000 kg/ha) | herbicidal activity against ECHCG [8] | herbicidal activity against SETFA [9] | herbicidal activity against ALOMY [10] | herbicidal activity against AMARE ([7]; 0.125 kg/ha) | herbicidal activity against APESV [11] | herbicidal activity against POLCO [12] | herbicidal activity against ECHCG [13]
COc1nc(N)nc(Nc2c(F)c(F)cc(F)c2F)n1 [Example 4] | very good (a very good herbicidal activity is given at values of at least 85) | very good (a very good herbicidal activity is given at values of at least 85) | very good (a very good herbicidal activity is given at values of at least 85) | – | – | – | – | – | – | – | – | – | – | –
Nc1nc(Nc2c(F)c(F)c(F)c(F)c2F)nc(OCC(F)(F)F)n1 [Example 3] | – | – | – | very good (a very good herbicidal activity is given at values of at least 85) | very good (a very good herbicidal activity is given at values of at least 85) | very good (a very good herbicidal activity is given at values of at least 85) | very good (a very good herbicidal activity is given at values of at least 85) | very good (a very good herbicidal activity is given at values of at least 85) | very good (a very good herbicidal activity is given at values of at least 85) | – | – | – | – | –
COc1nc(N)nc(Nc2c(F)c(F)c(F)c(F)c2F)n1 [Example 2, 6-methoxy-N2-(2,3,4,5,6-pentafluorophenyl)-1,3,5-triazine-2,4-diamine] | – | – | – | very good (a very good herbicidal activity is given at values of at least 85) | – | – | – | – | – | good to very good | good to very good | good to very good | very good (a very good herbicidal activity is given at values of at least 85) | very good (a very good herbicidal activity is given at values of at least 85)
